In patent US11136348B2, “Furostan-3-ol derivatives as skeletal muscle hypertrophic agents” (EMMYON, INC., priority 2015, dated 2021):

Tests used:
[1] = system: Male C57BL/6 mice, tibialis anterior (TA) muscle; assay: Mouse model of muscular atrophy: unilateral tibialis anterior immobilization; format: in vivo; conditions: 10 mg/kg i.p. twice a day for 7 days; 6 days TA immobilization; immobilized TA weight normalized to contralateral mobile TA; 12-13 mice
Description: Compounds of the invention were also tested in vivo in an established mouse model for muscular atrophy. Male C57BL/6 mice (8-10 weeks old) were administered i.p. injections of vehicle (corn oil) or 10 mg/kg test compound twice a day for 7 days. After 1 day of i.p. injections, one tibialis anterior (TA) muscle in each mouse was immobilized with a metal clip to induce skeletal muscle atrophy, as described previously (Dyle et al., Journal of Biological Chemistry 289: 14913-14924, 2014). In each mouse, the contralateral TA muscle remained mobile and served as a non-atrophied intrasubject control. After 7 days of i.p injections (6 days of unilateral TA immobilization), bilateral TA muscles were harvested and weighed. In each mouse, the amount of skeletal muscle loss in the immobilized TA muscle was determined by normalizing the weight of the immobilized TA muscle to the weight of the contralateral mobile (control) TA muscle. The data below are means ±SEM from 12-13 mice per condition. table: […]

C2C12 skeletal myotubes = assay: Total cellular protein content in C2C12 skeletal myotubes (BCA); format: cell-based, Mouse; conditions: 48 h incubation, vs vehicle (0.1% DMSO)
Description: The compounds were tested in a well-established in vitro model of skeletal muscle, namely fully differentiated, post-mitotic C2C12 skeletal myotubes. Mouse C2C12 myoblasts may be obtained from ATCC (CRL-1772) and maintained at 37° C. and 5% CO2 in Dulbecco's modified Eagle's medium (ATCC #30-2002) containing antibiotics (100 units/mL penicillin, […] streptomycin sulfate) and 10% (v/v) fetal bovine serum (FBS). Myoblasts were set up for experiments on day 0 in 6-well plates at a density of 2.5×10^5 cells/well. On day 2, myoblasts were induced to differentiate into myotubes by replacing 10% FBS with 2% horse serum (HS). On day 7, myotubes were rinsed once with PBS, and then 2% HS was replaced with 10% FBS. The vehicle (0.1% DMSO) or varying concentrations of test compound were added directly to the media. After 48 h incubation, myotube protein content and size were measured.
To determine myotube protein content, myotubes were washed with ice cold PBS, scraped into lysis buffer (10 mM Tris-HCl, pH 7.6, 100 mM NaCl, and 1% (w/v) SDS, complete Mini protease inhibitor cocktail (Roche), and a 1:100 dilution of phosphatase inhibitor cocktail 3 (Sigma)), and then lysed with 10 passes through a 22-gauge needle. An aliquot of each myotube lysate sample was then used to determine protein concentration by the BCA kit (Pierce). […] To determine myotube size, myotubes were subjected to immunofluorescence staining with anti-troponin primary antibody and a fluorescent secondary antibody. Myotubes were then imaged on an Olympus IX-71 microscope equipped with a DP-70 camera and epifluorescence filters. Image analysis was performed using ImageJ software.

## CC1=C(CC[C@H](C)CN)O[C@H]2C[C@H]3[C@@H]4CC[C@H]5C[C@@H](O)CC[C@]5(C)[C@H]4CC[C@]3(C)[C@@H]12.Cl [Example 3, (2aS,4S,6aS,6bS,8aS,8bS,11aS,12aS,12bR)-10-((S)-4-Amino-3-methylbutyl)-6a,8a,9-trimethyl-2,2a,3,4,5,6,6a,6b,7,8,8a,8b,11a,12,12a,12b-hexadecahydro-1H-naphtho[2′,1′:4,5]indeno[2,1-b]furan-4-ol hydrochloride]
[1]
  % Muscle Loss (Mean ± SEM): 8.3 ± 1.9%
C2C12 skeletal myotubes; 0.03 μM
  Percent Change in Total Protein: 3.8 ± 1.8%
C2C12 skeletal myotubes; 0.1 μM
  Percent Change in Total Protein: 6.7 ± 2.4 %
C2C12 skeletal myotubes; 0.3 μM
  Percent Change in Total Protein: 9.2 ± 2.4 %
C2C12 skeletal myotubes; 1 μM
  Percent Change in Total Protein: 16.4 ± 1.3 %
C2C12 skeletal myotubes; 3 μM
  Percent Change in Total Protein: 17.9 ± 0.7 %
